Data: patent publication US20240150338A1, “COMPOUNDS AND USE THEREOF FOR TREATMENT OF NEURODEGENERATIVE, DEGENERATIVE AND METABOLIC DISORDERS” (University of Florida Research Foundation, Incorporated, priority 2021, published 2024)

Test system: PK1 neuroblastoma cells exposed to TPrP
Experiment: cells
Type: cell-based
Details: Neuroblastoma cell, 96 h, read-out: TPrP EC50

`COc1cc(-c2nc(Nc3ccc(S(C)(=O)=O)c(C(F)(F)F)c3)sc2CO)cc(OC)n1` [SR-34991, (4-(2,6-Dimethoxypyridin-4-yl)-2-((4-(methylsulfonyl)-3-(trifluoromethyl)phenyl)amino)thiazol-5-yl)methanol] and `COc1cc(-c2nc(Nc3ccc(S(C)(=O)=O)c(F)c3)sc2CO)cc(OC)n1` [SR-34981, (4-(2,6-Dimethoxypyridin-4-yl)-2-((3-fluoro-4-(methylsulfonyl)phenyl)amino)thiazol-5-yl)methanol] cannot be ordered by EC50: greater than 500 nM for the first, greater than 500 nM for the second.

Going from `COc1cc(-c2nc(Nc3ccc(S(C)(=O)=O)c(F)c3)sc2CO)ccn1` [SR-34980, (2-((3-Fluoro-4-(methylsulfonyl)phenyl)amino)-4-(2-methoxypyridin-4-yl)thiazol-5-yl)methanol] to `COc1cc(-c2nc(Nc3ccc(S(C)(=O)=O)c(Cl)c3)sc2CO)ccn1` [SR-34996, (2-((3-Chloro-4-(methylsulfonyl)phenyl)amino)-4-(2-methoxypyridin-4-yl)thiazol-5-yl)methanol], the EC50 falls from 320 nM to 170 nM (1.9-fold).

`CS(=O)(=O)c1ccc(Nc2nc(-c3ccnc(Cl)c3)c(CO)s2)cc1C(F)(F)F` [SR-34987, (4-(2-Chloropyridin-4-yl)-2-((4-(methylsulfonyl)-3-(trifluoromethyl)phenyl)amino)thiazol-5-yl)methanol] and `Cc1cc(-c2nc(Nc3ccc(S(C)(=O)=O)c(C(F)(F)F)c3)sc2CO)ccn1` [SR-34988, (4-(2-Methylpyridin-4-yl)-2-((4-(methylsulfonyl)-3-(trifluoromethyl)phenyl)amino)thiazol-5-yl)methanol] are within 1.5-fold of each other in EC50: 480 nM for the first, 335 nM for the second.

Going from `CCN(CC)S(=O)(=O)c1ccc(-c2csc(Nc3ccc(S(C)(=O)=O)cc3)n2)cc1` [SR-34966, N,N-diethyl-4-(2-((4-(methylsulfonyl)phenyl)amino)thiazol-4-yl)benzenesulfonamide] to `CCN(CC)S(=O)(=O)c1ccc(-c2csc(Nc3ccc(S(N)(=O)=O)cc3)n2)cc1` [SR-34768, N,N-diethyl-4-(2-((4-sulfamoylphenyl)amino)thiazol-4-yl)benzenesulfonamide], the EC50 falls from greater than 500 nM to 150 nM. The second is the more potent here.

`Cc1cc(-c2nc(Nc3ccc(S(C)(=O)=O)cc3)sc2CSc2ccccc2)ccn1` [SR-35371, 4-(2-Methylpyridin-4-yl)-N-(4-(methylsulfonyl)phenyl)-5-((phenylthio)methyl)thiazol-2-amine] and `Cc1cc(-c2nc(Nc3ccc(S(C)(=O)=O)cc3)sc2COc2ccccc2)ccn1` [SR-35369, 4-(2-Methylpyridin-4-yl)-N-(4-(methylsulfonyl)phenyl)-5-(phenoxymethyl)thiazol-2-amine] cannot be ordered by EC50: greater than 500 nM for the first, greater than 500 nM for the second.

Compared with `NS(=O)(=O)c1ccc(Nc2nc(-c3ccc(S(=O)(=O)N4CCCCC4)cc3)c(CO)s2)cc1` [SR-34772, 4-((5-(Hydroxymethyl)-4-(4-(piperidin-1-ylsulfonyl)phenyl)thiazol-2-yl)amino)benzenesulfonamide], `CNS(=O)(=O)c1ccc(-c2nc(Nc3ccc(S(N)(=O)=O)cc3)sc2CO)cc1` [SR-34777, 4-(5-(Hydroxymethyl)-2-((4-sulfamoylphenyl)amino)thiazol-4-yl)-N-methylbenzenesulfonamide] is 5.7-fold lower in EC50: 400 nM for the first, 70 nM for the second.

Going from `Cc1cc(-c2nc(Nc3ccc(S(C)(=O)=O)c(Cl)c3)sc2CO)cc(C)n1` [SR-34995, (2-((3-Chloro-4-(methylsulfonyl)phenyl)amino)-4-(2,6-dimethylpyridin-4-yl)thiazol-5-yl)methanol] to `Cc1cc(-c2nc(Nc3ccc(S(C)(=O)=O)c(F)c3)sc2CO)cc(C)n1` [SR-34979, (4-(2,6-Dimethylpyridin-4-yl)-2-((3-fluoro-4-(methylsulfonyl)phenyl)amino)thiazol-5-yl)methanol], the EC50 rises from 115 nM to 360 nM (3.1-fold).

First: Cc1cc(-c2csc(Nc3ccc(S(C)(=O)=O)c(C(F)(F)F)c3)n2)ccn1 [SR-34983, 4-(2-Methylpyridin-4-yl)-N-(4-(methylsulfonyl)-3-(trifluoromethyl)phenyl)thiazol-2-amine]
Second: Cc1cc(-c2csc(Nc3ccc(S(C)(=O)=O)c(F)c3)n2)ccn1 [SR-34973, N-(3-fluoro-4-(methylsulfonyl)phenyl)-4-(2-methylpyridin-4-yl)thiazol-2-amine]
The EC50 of the first is 1.8-fold lower: 40 nM for the first, 70 nM for the second.

Compared with `CN(C)S(=O)(=O)c1ccc(-c2csc(Nc3ccc(S(N)(=O)=O)cc3)n2)cc1` [SR-34769, N,N-dimethyl-4-(2-((4-sulfamoylphenyl)amino)thiazol-4-yl)benzenesulfonamide], `CN(C)S(=O)(=O)c1ccc(-c2csc(Nc3ccc(S(C)(=O)=O)cc3)n2)cc1` [SR-34965, N,N-dimethyl-4-(2-((4-(methylsulfonyl)phenyl)amino)thiazol-4-yl)benzenesulfonamide] is 3.3-fold higher in EC50: 30 nM for the first, 100 nM for the second. The first is the more potent here.

Going from `CCOCc1sc(Nc2ccc(S(C)(=O)=O)cc2)nc1-c1ccnc(C)c1` [SR-35365, 5-(Ethoxymethyl)-4-(2-methylpyridin-4-yl)-N-(4-(methylsulfonyl)phenyl)thiazol-2-amine] to `COCc1sc(Nc2ccc(S(C)(=O)=O)cc2)nc1-c1ccnc(C)c1` [SR-35364, 5-(Methoxymethyl)-4-(2-methylpyridin-4-yl)-N-(4-(methylsulfonyl)phenyl)thiazol-2-amine], the EC50 falls from 450 nM to 230 nM (2-fold).

Going from `CNS(=O)(=O)c1ccc(-c2nc(Nc3ccc(S(C)(=O)=O)cc3)sc2CO)cc1` [SR-34968, 4-(5-(Hydroxymethyl)-2-((4-(methylsulfonyl)phenyl)amino)thiazol-4-yl)-N-methylbenzenesulfonamide] to `CN(C)S(=O)(=O)c1ccc(-c2nc(Nc3ccc(S(C)(=O)=O)cc3)sc2CO)cc1` [SR-34969, 4-(5-(Hydroxymethyl)-2-((4-(methylsulfonyl)phenyl)amino)thiazol-4-yl)-N,N-dimethylbenzenesulfonamide], the EC50 falls from greater than 500 nM to 350 nM. The second is the more potent here.

Compared with `CS(=O)(=O)c1ccc(Nc2nc(-c3ccnc(Cl)c3)c(CO)s2)cc1F` [SR-34977, (4-(2-Chloropyridin-4-yl)-2-((3-fluoro-4-(methylsulfonyl)phenyl)amino)thiazol-5-yl)methanol], `CS(=O)(=O)c1ccc(Nc2nc(-c3ccnc(Cl)c3)cs2)cc1F` [SR-34972, 4-(2-Chloropyridin-4-yl)-N-(3-fluoro-4-(methylsulfonyl)phenyl)thiazol-2-amine] is 2.9-fold lower in EC50: 360 nM for the first, 125 nM for the second. The second is the more potent here.

First: NS(=O)(=O)c1ccc(Nc2nc(-c3ccc(S(=O)(=O)N4CCOCC4)cc3)cs2)cc1 [SR-34765, 4-((4-(4-(Morpholinosulfonyl)phenyl)thiazol-2-yl)amino)benzenesulfonamide]
Second: CNS(=O)(=O)c1ccc(-c2csc(Nc3ccc(S(N)(=O)=O)cc3)n2)cc1 [SR-34771, N-methyl-4-(2-((4-sulfamoylphenyl)amino)thiazol-4-yl)benzenesulfonamide]
The EC50 of the first is 2.8-fold higher: 70 nM for the first, 25 nM for the second.

Compared with `CN(C)S(=O)(=O)c1ccc(-c2nc(Nc3ccc(S(N)(=O)=O)cc3)sc2CO)cc1` [SR-34775, 4-(5-(Hydroxymethyl)-2-((4-sulfamoylphenyl)amino)thiazol-4-yl)-N,N-dimethylbenzenesulfonamide], `CCN(CC)S(=O)(=O)c1ccc(-c2nc(Nc3ccc(S(N)(=O)=O)cc3)sc2CO)cc1` [SR-34774, N,N-diethyl-4-(5-(hydroxymethyl)-2-((4-sulfamoylphenyl)amino)thiazol-4-yl)benzenesulfonamide] is 2.5-fold higher in EC50: 60 nM for the first, 150 nM for the second. The first is the more potent here.

Going from `Cc1cc(-c2nc(Nc3ccc(S(C)(=O)=O)cc3)sc2C=O)ccn1` [SR-35367, 4-(2-Methylpyridin-4-yl)-2-((4-(methylsulfonyl)phenyl)amino)thiazole-5-carbaldehyde] to `Cc1cc(-c2nc(Nc3ccc(S(C)(=O)=O)cc3)sc2COc2ccc(F)cc2)ccn1` [SR-35370, 5-((4-Fluorophenoxy)methyl)-4-(2-methylpyridin-4-yl)-N-(4-(methylsulfonyl)phenyl)thiazol-2-amine], the EC50 rises from 230 nM to greater than 500 nM. The first is the more potent here.

First: COc1cc(-c2csc(Nc3ccc(S(C)(=O)=O)c(F)c3)n2)ccn1 [SR-34975, N-(3-fluoro-4-(methylsulfonyl)phenyl)-4-(2-methoxypyridin-4-yl)thiazol-2-amine]
Second: COc1cc(-c2csc(Nc3ccc(S(C)(=O)=O)c(F)c3)n2)cc(OC)n1 [SR-34976, 4-(2,6-Dimethoxypyridin-4-yl)-N-(3-fluoro-4-(methylsulfonyl)phenyl)thiazol-2-amine]
The EC50 of the first is 1.9-fold lower: 170 nM for the first, 320 nM for the second. The first is the more potent here.

`COc1cc(-c2nc(Nc3ccc(S(C)(=O)=O)c(C(F)(F)F)c3)sc2CO)ccn1` [SR-34990, (4-(2-Methoxypyridin-4-yl)-2-((4-(methylsulfonyl)-3-(trifluoromethyl)phenyl)amino)thiazol-5-yl)methanol] and `Cc1cc(-c2nc(Nc3ccc(S(C)(=O)=O)c(C(F)(F)F)c3)sc2CO)cc(C)n1` [SR-34989, (4-(2,6-Dimethylpyridin-4-yl)-2-((4-(methylsulfonyl)-3-(trifluoromethyl)phenyl)amino)thiazol-5-yl)methanol] are within 1.5-fold of each other in EC50: 480 nM for the first, 325 nM for the second.

Going from `NS(=O)(=O)c1ccc(Nc2nc(-c3ccncc3)cs2)cc1` [SR-186, 4-((4-(pyridin-4-yl)thiazol-2-yl)amino)benzenesulfonamide] to `NS(=O)(=O)c1ccc(Nc2nc(-c3ccc(S(=O)(=O)Nc4ccccc4)cc3)cs2)cc1` [SR-34767, N-Phenyl-4-(2-((4-sulfamoylphenyl)amino)thiazol-4-yl)benzenesulfonamide], the EC50 rises from 70 nM to greater than 500 nM. The first is the more potent here.

First: CCN(CC)S(=O)(=O)c1ccc(-c2nc(Nc3ccc(S(C)(=O)=O)cc3)sc2CO)cc1 [SR-34970, N,N-diethyl-4-(5-(hydroxymethyl)-2-((4-(methylsulfonyl)phenyl)amino)thiazol-4-yl)benzenesulfonamide]
Second: CC(C)NS(=O)(=O)c1ccc(-c2csc(Nc3ccc(S(C)(=O)=O)cc3)n2)cc1 [SR-34967, N-isopropyl-4-(2-((4-(methylsulfonyl)phenyl)amino)thiazol-4-yl)benzenesulfonamide]
The EC50 of the first is higher: greater than 500 nM for the first, 500 nM for the second.

First: CCN(c1ccc(S(C)(=O)=O)cc1)c1nc(-c2ccnc(C)c2)cs1 [SR-35368, N-ethyl-4-(2-methylpyridin-4-yl)-N-(4-(methylsulfonyl)phenyl)thiazol-2-amine]
Second: CNS(=O)(=O)c1ccc(-c2csc(Nc3ccc(S(C)(=O)=O)c(C(F)(F)F)c3)n2)cc1 [SR-35734, N-methyl-4-(2-((4-(methylsulfonyl)-3-(trifluoromethyl)phenyl)amino)thiazol-4-yl)benzenesulfonamide]
The EC50 of the first is 77-fold higher: 230 nM for the first, 3 nM for the second.
